The source of these data is US9918972B2, “Treatment of leukemia with artemisinin derivatives and combinations with other antineoplastic agents” (UNIVERSITY OF MARYLAND, BALTIMORE, priority 2014, dated 2018).

Series [1] concerns MOLM14, Kasumi-1, KOPN8 and RCH-ACV leukemia cell lines. The series can be described thus: Kinase inhibitor drug combination screen, summary over the four leukemia cell lines. The settings on record: for No. Cell Lines: cell lines synergistically inhibited (>10% over Bliss) by drug 1 combined with AS and/or ART-838; for average inhibition over the Bliss prediction: plus ART-838, average over synergistic cell lines; for average inhibition over the Bliss independence prediction: average over synergistic cell lines; for synergy with AS or ART-838: screens in four human leukemia cell lines.
Description: (§2) Hits were ranked by the observed inhibition over the Bliss independence prediction.
(§3) Combinations with positive values for this Bliss difference were considered synergistic, values near zero, additive, and negative values, antagonistic.

Series [2] deals with RCH-ACV. The series can be described thus: Kinase inhibitor drug combination screen (MTS, Bliss-independence analysis).
Description: as §2, §3
For series [3], the system named is MOLM14. The description is as above.
For series [4], the system named is MOLM14 cells. As to the kind of experiment: Combinations of AS, ART-838 or DHA with BCL-2 inhibitors, alamarBlue, 48 h. It is filed as cell-based, human. As to the method: FIGS. 11A-11C. Antileukemic efficacy of ABT-199, ABT-263 or ABT-737 combined with AS or ART-838. […] Each experiment was performed in triplicate.
FIG. 12. […] MOLM14 cells were treated with increasing concentrations of ABT-199, ABT-263 or ABT-737 without or with DHA (500 nM and 1 μM) for 48hrs. Then cytotoxicity was evaluated by alamarBlue assays. Each experiment was performed in triplicate.
(§1) MOLM14 or KOPN8 cells were seeded in 96-well plates as described above for alamarBlue assays. Cells were treated with a certain concentrations of AS, or ART-838 or DHA, in combination with a range of concentrations of ABT-199 or ABT-263 or ABT-737. AlamarBlue assays were performed as described above. Each set of drugs or drug combinations was tested in triplicate. Chou-Talalay drug combination analysis was performed as above.
Background: Alamar Blue is a resazurin reagent that responds to reducing activity.

Series [5] has as its system KOPN8. The series can be described thus: Kinase inhibitor drug combination screen (MTS, Bliss-independence analysis).
Description: as §2, §3
Series [6] has as its system MOLM14 cells. The series can be described thus: Apoptosis (APC Annexin-V / 7-AAD, FACS). It is filed as cell-based, human. The settings on record: MOLM14, ABT-199 plus AS or ART-838, 24 hrs. As for the experimental part: FIG. 13. […] MOLM14 cells were treated with ABT-199 and/or AS (upper panel) or ART-838 (lower panel) for 24 hrs. Cells were stained with APC Annexin-V and 7-AAD and analyzed by fluorescence-activated cell sorting (FACS) to assess apoptotic cells. The early apoptotic population was defined as APC Annexin-V (+) and 7-AAD (−). The total apoptotic population was defined as APC Annexin-V (+). Each experiment was performed in triplicate. […].
Drug or vehicle-treated cells (1-5×10^5/sample) were washed with cold PBS, resuspended in Annexin-V binding buffer, co-stained with 5 μl each of APC Annexin-V and 7-AAD viability dye (all from BioLegend, San Diego, Calif.), and incubated for 15 minutes at room temperature in the dark then stored on ice until analysis (<30 minutes). Stained cells were analyzed using the FL3 and FL4 channels of an Accuri C6 flow cytometer. ˜10,000 non-debris cellular events were collected per sample and analyzed, as for cell cycle. The Annexin-V^−/7-AAD^− population was designated “viable,” the Annexin-V^+/7-AAD^− population was designated “early apoptotic,” and the Annexin-V^+/7-AAD^+ population was designated “dying/dead” [47].

Series [7] relates to MOLM14 and KOPN8 cells. The series can be described thus: Validation of ABT-199/ABT-737 + AS/ART-838 combinations, alamarBlue, Chou-Talalay. The format is cell-based, human. The settings on record: MOLM14 and KOPN8, AS or ART-838 at IC50, 48 h. As for the experimental part: FIGS. 10A-10B. Validation of cytotoxicity of ABT-199/ABT-737+AS/ART-838 combinations by alamarBlue assay. […] Each experiment was performed in triplicate. All data points between 0.1-99.9% growth inhibition were analyzed using the methods of Chou and Talalay and combination indices (CIs) calculated. CIs were graphed against the fractional effect (FE; the fraction of cells inhibited at each concentration). CI<1 indicates synergy, CI=1, additivity, CI>1, antagonism.
as §1
Cytotoxicity of the individual drugs and combinations was assessed using alamarBlue fluorescence, a more sensitive indicator of cell metabolism (as a surrogate for cell number) than MTS.
Drug combination interactions were assessed using the methods of Chou-Talalay, a more robust measure of synergy than the Bliss independence model. The Chou-Talalay method, however, can only be used at drug effect levels from 0.1-99.9%. […]

Series [8] has as its system Kasumi-1. The series can be described thus: Kinase inhibitor drug combination screen (MTS, Bliss-independence analysis). As to conditions: Kasumi-1, Drug 2 = ART-838 at approximate IC50, 48 h.
Description: as §2, §3
The subject of series [9] is MOLM14 cells. The series can be described thus: ROS - mitochondrial superoxide (MitoSOX flow cytometry). It is filed as cell-based, human. As to conditions: MOLM14, drug alone, 2.25x IC50, 16 h. As to the method: FIGS. 4A-4D. […] CIs were computed as described above. CI<1 indicates synergy, CI=1, additivity, CI>1, antagonism. […] Cells were then loaded with 5 μM MitoSox for 30 min, washed, and analyzed by flow cytometry for MitoSox fluorescence (indicating mitochondrial superoxide) in the FL2 channel. […] Error bars represent the SEM of three independent experiments.
For orientation: Flow cytometry measures light scatter and fluorescence of single cells or particles in a stream.

Series [10] relates to chemotherapy (doxorubicin, hydroxyurea, methotrexate, or vincristine)-resistant CEM (T-ALL) sub-lines. As to conditions: reference [27]; cited from earlier work.
[11] abbreviates: Drug 2 = ART-838 at approximate IC50, 48 h.
The mark [12] stands for this setting: Drug 2 = AS at approximate IC50, 48 h.
The mark [13] stands for this setting: MOLM14, Drug 2 = ART-838 at approximate IC50, 48 h.
[14] abbreviates: MOLM14, Drug 2 = AS at approximate IC50, 48 h.
Where [15] appears, read: KOPN8, Drug 2 = ART-838 at approximate IC50, 48 h.
Setting [16] is: KOPN8, Drug 2 = AS at approximate IC50, 48 h.

As for `CC1(C)CCC(CN2CCN(c3ccc(C(=O)NS(=O)(=O)c4ccc(NCC5CCOCC5)c([N+](=O)[O-])c4)c(Oc4cnc5[nH]ccc5c4)c3)CC2)=C(c2ccc(Cl)cc2)C1` [ABT-199], the “No. Cell Lines” value in [1] is 3/4. For the same compound, the “cell lines in which combination was synergistic” value in [1] (plus ART-838) and in series [1] (plus AS) was 3/4 each time. In addition, the “average inhibition over the Bliss prediction” value in series [1] was 21%. Also, in [1] (plus AS), the “average inhibition over the Bliss independence prediction” value is 17%. Further, the “synergy with AS or ART-838” value in [1] is recorded as “Particularly strong synergy”. Further, the “fractional inhibition over Bliss prediction” value was “RCH-ACV (0.35)” in series [2] (setting [11]); “RCH-ACV (0.16)” in series [2] (setting [12]); “MOLM14 (0.18),” in series [3] (setting [13]); “MOLM14 (0.20),” in [3] (setting [14]); “KOPN8 (0.11),” in series [5] (setting [15]); “KOPN8 (0.15),” in [5] (setting [16]). Moreover, in series [4] (MOLM14, 37 nM ABT-199 alone), the “leukemia cell growth inhibition” value was “did not inhibit”. The growth inhibition in series [4] (MOLM14, 37 nM ABT-199 together with ART-838 25 nM) is 100%; in series [4] (MOLM14, 37 nM ABT-199 together with AS 825 nM), 100%. Further, the induction of apoptosis entry in [6] is “cooperated to induce apoptosis”. Also, the “cytotoxic efficacy on addition of AS or ART-838” value in series [7] is listed as “potently increased the efficacy”.
Turning to `CN(C)CC[C@H](CSc1ccccc1)Nc1ccc(S(=O)(=O)NC(=O)c2ccc(N3CCN(Cc4ccccc4-c4ccc(Cl)cc4)CC3)cc2)cc1[N+](=O)[O-]` [ABT-737], the “No. Cell Lines” value in series [1] was 4/4. Also, the “cell lines in which combination was synergistic” value in [1] (plus ART-838) is 4/4; in [1] (plus AS), 3/4. In addition, in series [1], the “average inhibition over the Bliss prediction” value was 24%. Further, the “average inhibition over the Bliss independence prediction” value in series [1] (plus AS) is on record as 33%. The “synergy with AS or ART-838” value in series [1] was “Particularly strong synergy”. Also, the “fractional inhibition over Bliss prediction” value was “RCH-ACV (0.24)” in series [2] (setting [11]); “RCH-ACV (0.23)” in [2] (setting [12]); “MOLM14 (0.34),” in series [3] (setting [13]); “MOLM14 (0.50),” in series [3] (setting [14]); “Kasumi-1 (0.11),” in series [8]; “KOPN8 (0.28),” in series [5] (setting [15]). In addition, in series [5] (setting [16]), the “fractional inhibition over Bliss prediction” value is reported as “KOPN8 (0.25),”. For the same compound, the “cytotoxic efficacy on addition of AS or ART-838” value in series [7] is “potently increased the efficacy”.
In the case of `C[C@H]1[C@H](OC(=O)CCC(=O)O)O[C@@H]2O[C@@]3(C)CC[C@H]4[C@H](C)CC[C@@H]1[C@@]24OO3` [AS, artesunate], the “mitochondrial superoxide (MitoSox MFI)” value in series [9] is on record as “increased”. Besides, in series [10], the “efficacy against resistant sub-lines vs parental line” value is listed as “as effective”.
